Data set [1] relates to Mus musculus. Description: Acute toxicity in ICR mouse assessed as change in serum ALT level at 100 umol/kg, po administered as single dose measured on 7th day. The note with it: in vivo. It counts as organism-based.
Data set [2] deals with Mus musculus. Description: Acute toxicity in ICR mouse xenografted with S180 cells assessed as spleen weight at 100 umol/kg, po. It counts as organism-based, CCRF S-180. The note with it: in vivo.
The subject of data set [3] is Mus musculus. Description: Acute toxicity in ICR mouse xenografted with S180 cells assessed as heart weight at 100 umol/kg, po. The data set is classed as organism-based, CCRF S-180. The note with it: in vivo.
The test system of data set [4] is Mus musculus. Description: Acute toxicity in ICR mouse xenografted with S180 cells assessed as brain weight at 100 umol/kg, po. It counts as organism-based, CCRF S-180. The note with it: in vivo.
The test system of data set [5] is Calf thymus DNA. Description: Induction of DNA intercalation of calf thymus DNA assessed as decrease in fluorescence intensity at 345 nm measured at 0.18 uM by fluorescence spectroscopy. The data set is classed as nucleic-acid assay. The note with it: Bos taurus.
In data set [6] the test system is Calf thymus DNA. Description: Induction of DNA intercalation of calf thymus DNA assessed as increase in absorption at 7.4 uM measured at 208 nm using 200 uM calf thymus DNA by UV spectrophotometry. It counts as nucleic-acid assay. The note with it: Bos taurus.
Data set [7] deals with Mus musculus. Description: Acute toxicity in ICR mouse xenografted with S180 cells assessed as liver weight at 100 umol/kg, po. It counts as organism-based, CCRF S-180. The note with it: in vivo.
The test system of a further data set is Brain. Description: Drug uptake in ICR mouse brain xenografted with mouse S180 cells at 1 umol/kg/day, po after 7 days. It counts as ADME, organism-based, CCRF S-180. The note with it: in vivo, 168 h.
For data set [8], the system named is Mus musculus. Description: Acute toxicity in ICR mouse assessed as normal behavior at 100 umol/kg, po administered as single dose observed for 7 days. It counts as organism-based. The note with it: in vivo, 168 h.
In data set [9] the test system is HeLa. Description: Antiproliferative activity against human HeLa cells assessed as cell viability after 48 hrs by MTT assay. It counts as functional, cell-based. (Tetrazolium dyes change colour on reduction, which living cells bring about.)
Data set [10] concerns Calf thymus DNA. Description: Induction of DNA intercalation of calf thymus DNA assessed as increase in absorption at 0.9 uM using 4 uM calf thymus DNA measured at 208 nm by UV spectrophotometry. The note with it: Bos taurus. The data set is classed as nucleic-acid assay.
Data set [11] concerns Calf thymus DNA. Description: Induction of DNA intercalation of calf thymus DNA assessed as increase in fluorescence intensity at 345 nm using 80 uM calf thymus DNA by fluorescence spectroscopy. It counts as nucleic-acid assay. The note with it: Bos taurus.
Data set [12] in a line: Retention time of compound by HPLC method. It counts as physicochemical.
The test system of data set [13] is CCRF S-180. Description: Potency index, ratio of activity of Doxorubicin to test compound for antitumor activity against mouse S180 cells. It counts as functional.
A further data set deals with Kidney. Description: Drug uptake in ICR mouse kidney xenografted with mouse S180 cells at 1 umol/kg/day, po after 7 days. It counts as ADME, organism-based, CCRF S-180. The note with it: in vivo, 168 h.
For a further data set, the system named is Liver. Description: Drug uptake in ICR mouse liver xenografted with mouse S180 cells at 1 umol/kg/day, po after 7 days. It counts as ADME, organism-based, CCRF S-180. The note with it: in vivo, 168 h.
Data set [14] deals with CCRF S-180. Description: Antiproliferative activity against mouse S180 cells assessed as cell viability after 48 hrs by MTT assay. It counts as functional, cell-based. The note with it: CCRF S-180, 48 h.
Data set [15] relates to Calf thymus DNA. Description: Induction of DNA intercalation of calf thymus DNA assessed as decrease in absorption at 7.4 uM measured at 258 nm using 200 uM calf thymus DNA by UV spectrophotometry. It counts as nucleic-acid assay. The note with it: Bos taurus.
Data set [16] concerns Mus musculus. Description: Cardiotoxicity in ICR mouse xenografted with mouse S180 cells. It counts as toxicity, organism-based, CCRF S-180. The note with it: in vivo.
A further data set relates to Lung. Description: Drug uptake in ICR mouse lung xenografted with mouse S180 cells at 1 umol/kg/day, po after 7 days. The data set is classed as ADME, organism-based, CCRF S-180. The note with it: in vivo, 168 h.
The next data set concerns Spleen. Description: Drug uptake in ICR mouse spleen xenografted with mouse S180 cells at 1 umol/kg/day, po after 7 days. It counts as ADME, organism-based, CCRF S-180. The note with it: in vivo, 168 h.
A further data set deals with Heart. Description: Drug uptake in ICR mouse heart xenografted with mouse S180 cells at 1 umol/kg/day, po after 7 days. The data set is classed as ADME, organism-based, CCRF S-180. The note with it: in vivo, 168 h.
Data set [17] concerns CCRF S-180. Description: Antiproliferative activity against mouse S180 cells at 3.5 uM after 24 hrs by confocal microscopy. It counts as functional, cell-based.
Data set [18] concerns CCRF S-180. Description: Antitumor activity against mouse S180 cells xenografted in po dosed ICR mouse assessed as decrease in tumor growth administered daily for 14 days. The data set is classed as functional, organism-based.
For a further data set, the system named is Tumour. Description: Drug level in tumor in ICR mouse xenografted with S180 cells at 1 umol/kg/day, po after 7 days. It counts as ADME, organism-based, Neoplasm, CCRF S-180. The note with it: in vivo, 168 h.
For data set [19], the system named is Calf thymus DNA. Description: Induction of DNA intercalation of calf thymus DNA assessed as increase in absorption at 0.9 uM using 4 uM calf thymus DNA measured at 258 nm by UV spectrophotometry. The data set is classed as nucleic-acid assay. The note with it: Bos taurus.
In data set [20] the test system is Mus musculus. Description: Acute toxicity in ICR mouse assessed as morphological changes in organs at 100 umol/kg, po administered as single dose observed for 7 days. The data set is classed as organism-based. The note with it: in vivo, 168 h.
The subject of data set [21] is Mus musculus. Description: Acute toxicity in ICR mouse assessed as change in serum creatinine level at 100 umol/kg, po administered as single dose measured on 7th day. The note with it: in vivo. It counts as organism-based.
Data set [22] concerns HeLa. Description: Antiproliferative activity against human HeLa cells at 3.5 uM after 24 hrs by confocal microscopy. The data set is classed as functional, cell-based.
The test system of data set [23] is Mus musculus. Description: Acute toxicity in ICR mouse assessed as change in serum AST level at 100 umol/kg, po administered as single dose measured on 7th day. It counts as organism-based. The note with it: in vivo.
A further data set relates to Blood. Description: Drug uptake in ICR mouse blood xenografted with mouse S180 cells at 1 umol/kg/day, po after 7 days. It counts as ADME, organism-based, CCRF S-180. The note with it: in vivo, 168 h.
Data set [24] has as its system Mus musculus. Description: Acute toxicity in ICR mouse xenografted with S180 cells assessed as kidney weight at 100 umol/kg, po. The data set is classed as organism-based, CCRF S-180. The note with it: in vivo.

Activity calls are given as the source filed them. No cut-off for these calls is given here.

As to `O=C1[C@@H]2Cc3c([nH]c4ccccc34)CN2C(=O)[C@@H]2Cc3c([nH]c4ccccc34)CN12`, the Activity entry in the data set with Mus musculus [1], with Mus musculus [2], in the data set on Mus musculus [3], in the data set with Mus musculus [4], in the data set on Mus musculus [7] and in the data set on Mus musculus [8] was “Non-toxic” each time. For the same compound, the Activity result in the data set on Mus musculus [16] was “Non-toxic”; in the data set with CCRF S-180 [18], “Dose-dependent effect”; in the data set with Mus musculus [20] it was “Non-toxic”; with Mus musculus [21], “Non-toxic”; in the data set on Mus musculus [23] it was “Non-toxic”; with Mus musculus [24], “Non-toxic”. Further, the outcome in the data set with Calf thymus DNA [5], with Calf thymus DNA [6], with Calf thymus DNA [10], in the data set on Calf thymus DNA [11], in the data set on Calf thymus DNA [15] and in the data set with CCRF S-180 [17] was Active. The result in the data set with Calf thymus DNA [19] and with HeLa [22] was Active. Moreover, the Drug uptake entry in the data set with Brain, with Kidney, with Liver, with Lung, in the data set on Spleen and with Heart was “Not Active” in each case. For the same compound, the Drug uptake result was “Active” with Tumour and “Not Active” in the data set with Blood. Besides, the IC50 (as a rule, the midpoint of a concentration-inhibition curve) with HeLa [9] worked out at 3.5 µM; in the data set on CCRF S-180 [14], 0.39 µM. Further, the Retention_time in [12] is 5.704 min. Moreover, in the data set with CCRF S-180 [13], the Ratio is recorded as 2.

Regarding `COc1cccc2c1C(=O)c1c(O)c3c(c(O)c1C2=O)C[C@@](O)(C(=O)CO)C[C@@H]3O[C@H]1C[C@H](N)[C@H](O)[C@H](C)O1` [DOXORUBICIN], the Activity entry in the data set on Mus musculus [16] is “Toxic”.

Values taken from ChEMBL document CHEMBL3779818, “Design, synthesis and evaluation of a novel stacking nano-intercalator as an anti-tumor agent” (Medchemcomm, 2016).
